From the supplement of paper PMC11451515

Key:
Details in all cases: 48 h
[1] = test system: NOMO1; assay: cell viability relative to DMSO control; higher = less cytotoxic
Method in brief: (§1)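 Viability was expressed as a per-plate percentage of DMSO wells, with cell-free wells as background. Leukemia cells (NOMO1 or SEM at 500 cells/well, P12-Ichikawa at 1000 cells/well) were adapted for at least four passages in each medium and seeded in 1536-well plates (5 μl). Library compounds in DMSO were pin-dosed over an 11-point threefold series from 47 μM to 0.79 nM, and CellTiter-Glo One luminescence was read after 48 h at 37°C.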

[2] = test system: P12-Ichikawa; assay: as above
Method in brief: as §1

[3] = test system: SEM cells; assay: as above
Method in brief: as §1

[4] = test system: NOMO1; assay: AUC of viability dose-response curve (% viability x log10 dose units); higher = less sensitive
Method in brief: (§2)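 Viability of medium-adapted leukemia cells was measured by CellTiter-Glo One luminescence after 48 h at 37°C with library compounds in DMSO. Doses were 11 threefold steps from 47 μM to 0.79 nM, in 1536-well plates at 500 or 1000 cells/well. Signals were normalised per plate to DMSO and cell-free wells and fitted with a four-parameter log-logistic model on log10 dose. Area under the curve was integrated by trapezoidal rule, with curves exceeding full viability scaled and failed quality-control curves removed.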

[5] = test system: P12-Ichikawa; assay: as above
Method in brief: as §2

[6] = test system: SEM cells; assay: as above
Method in brief: as §2

Cc1cc2c(C(N)=O)cccc2n1-c1nc2c(c(NCc3ccccc3)n1)COCC2
cell viability [%]
Details	[1]	[2]	[3]
HPLM + 10% dialyzed FBS, 0.000781 µM	117	99.5	89.6
HPLM + 10% dialyzed FBS, 0.00234 µM	124	92.4	95.4
HPLM + 10% dialyzed FBS, 0.00702 µM	101	92.2	73
HPLM + 10% dialyzed FBS, 0.0211 µM	108	93.2	87.2
HPLM + 10% dialyzed FBS, 0.0632 µM	114	99.8	93.5
HPLM + 10% dialyzed FBS, 0.19 µM	103	89.6	93.3
HPLM + 10% dialyzed FBS, 0.569 µM	85.5	78.4	84.9
HPLM + 10% dialyzed FBS, 1.71 µM	25	85.9	38.7
HPLM + 10% dialyzed FBS, 5.12 µM	4.02	2.18	3.03
HPLM + 10% dialyzed FBS, 15.4 µM	3.66	2.06	2.9
HPLM + 10% dialyzed FBS, 46.1 µM	3.75	3.98	3.03
RPMI 5 mM glucose + 10% FBS, 0.000781 µM	89.3	99.6	–
RPMI 5 mM glucose + 10% FBS, 0.00234 µM	106	96.2	–
RPMI 5 mM glucose + 10% FBS, 0.00702 µM	92.9	95.5	–
RPMI 5 mM glucose + 10% FBS, 0.0211 µM	87.8	93.8	–
RPMI 5 mM glucose + 10% FBS, 0.0632 µM	99.8	91.2	–
RPMI 5 mM glucose + 10% FBS, 0.19 µM	98	94.6	–
RPMI 5 mM glucose + 10% FBS, 0.569 µM	81.6	81.7	–
RPMI 5 mM glucose + 10% FBS, 1.71 µM	44.1	63.1	–
RPMI 5 mM glucose + 10% FBS, 5.12 µM	3.08	2.37	–
RPMI 5 mM glucose + 10% FBS, 15.4 µM	3.4	1.97	–
RPMI 5 mM glucose + 10% FBS, 46.1 µM	3.91	2.61	–
RPMI 5 mM glucose + 10% dialyzed FBS, 0.000781 µM	92.9	95.9	94.5
RPMI 5 mM glucose + 10% dialyzed FBS, 0.00234 µM	90.3	94.4	105
RPMI 5 mM glucose + 10% dialyzed FBS, 0.00702 µM	92.4	95.6	85.5
RPMI 5 mM glucose + 10% dialyzed FBS, 0.0211 µM	92.8	97.7	87.7
RPMI 5 mM glucose + 10% dialyzed FBS, 0.0632 µM	91.2	96.3	101
RPMI 5 mM glucose + 10% dialyzed FBS, 0.19 µM	100	95.4	99.4
RPMI 5 mM glucose + 10% dialyzed FBS, 0.569 µM	73.3	91.8	95.8
RPMI 5 mM glucose + 10% dialyzed FBS, 1.71 µM	20.6	72.9	24.1
RPMI 5 mM glucose + 10% dialyzed FBS, 5.12 µM	3.21	2.73	3.45
RPMI 5 mM glucose + 10% dialyzed FBS, 15.4 µM	2.75	2.42	3.44
RPMI 5 mM glucose + 10% dialyzed FBS, 46.1 µM	2.84	2.96	3.1

AUC of viability dose-response curve
Details	[4]	[5]	[6]
HPLM + 10% dialyzed FBS	312	330	295
RPMI 5 mM glucose + 10% FBS	315	322	310
RPMI 5 mM glucose + 10% dialyzed FBS	293	334	312
